Legend:
PLCγ1^wt = biological target: T1, PLCγ1^wt (Homo sapiens, UniProt P19174, I813T); experiment: Saturation transfer difference (STD) NMR binding; conditions: STD amplification factor vs ADP concentration; likely an overestimate; read-out: Kd, STD-NMR, H2 resonance
T1 construct: specific activities of PLCγ1^wt and PLCγ2^wt full-length proteins; made in house; host or cells: Escherichia coli T7 Express lysY/Iq
T1 sequence (P19174 1-1291 isoform P19174-2 I813T): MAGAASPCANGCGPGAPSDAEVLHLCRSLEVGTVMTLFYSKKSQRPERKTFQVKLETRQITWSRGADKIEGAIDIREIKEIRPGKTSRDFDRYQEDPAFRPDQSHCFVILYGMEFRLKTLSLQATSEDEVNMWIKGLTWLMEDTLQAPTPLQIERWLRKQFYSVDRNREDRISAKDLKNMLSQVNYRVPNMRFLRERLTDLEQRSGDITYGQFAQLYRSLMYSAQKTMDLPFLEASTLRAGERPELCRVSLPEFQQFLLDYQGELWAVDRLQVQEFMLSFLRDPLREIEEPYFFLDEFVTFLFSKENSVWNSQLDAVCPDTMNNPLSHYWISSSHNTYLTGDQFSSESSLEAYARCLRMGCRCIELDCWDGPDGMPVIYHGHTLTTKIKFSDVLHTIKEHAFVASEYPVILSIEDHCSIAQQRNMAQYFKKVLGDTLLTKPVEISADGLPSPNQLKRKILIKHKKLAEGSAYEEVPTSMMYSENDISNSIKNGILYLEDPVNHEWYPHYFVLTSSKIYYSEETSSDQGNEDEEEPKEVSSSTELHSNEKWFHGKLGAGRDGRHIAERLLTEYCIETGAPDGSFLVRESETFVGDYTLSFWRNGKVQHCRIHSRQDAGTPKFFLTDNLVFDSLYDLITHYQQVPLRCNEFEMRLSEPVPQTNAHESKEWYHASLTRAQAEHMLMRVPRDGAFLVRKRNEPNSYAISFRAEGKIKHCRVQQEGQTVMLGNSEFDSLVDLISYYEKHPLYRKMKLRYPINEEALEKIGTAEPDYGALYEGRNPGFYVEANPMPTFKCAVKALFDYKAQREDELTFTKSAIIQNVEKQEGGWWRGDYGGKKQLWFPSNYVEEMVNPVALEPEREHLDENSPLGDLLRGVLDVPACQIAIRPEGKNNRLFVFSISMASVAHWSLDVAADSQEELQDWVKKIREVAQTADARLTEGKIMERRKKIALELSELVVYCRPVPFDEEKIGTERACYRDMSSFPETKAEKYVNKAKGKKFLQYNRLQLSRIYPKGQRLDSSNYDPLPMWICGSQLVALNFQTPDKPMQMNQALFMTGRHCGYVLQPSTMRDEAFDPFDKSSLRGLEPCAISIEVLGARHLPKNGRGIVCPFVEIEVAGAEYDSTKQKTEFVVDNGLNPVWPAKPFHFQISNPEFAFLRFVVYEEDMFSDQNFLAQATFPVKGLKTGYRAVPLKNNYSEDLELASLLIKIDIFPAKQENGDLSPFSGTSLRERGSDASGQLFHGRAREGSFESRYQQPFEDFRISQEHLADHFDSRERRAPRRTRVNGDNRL
Description: Protein was buffer exchanged into phosphate buffered saline (pH 7.5) prepared in deuterium oxide. A 10 mM stock of ultrapure ADP was purchased from Promega. NMR spectra were acquired at 293 K in a Bruker Avance Neo 600 MHz spectrometer equipped with QCI-F cryoprobe and operating Topspin 4.2. Saturation transfer difference NMR experiments (stddiffesgp.3) were acquired with 2 s saturation at 0.75 and 50 ppm using 50 ms Gaussian pulses. For the determination of Kd, ADP was added to the protein at ligand excesses from 5- to 100-fold. The protein concentration was 10 µM. STD amplification factors, AF=L0/P0⋅Iref−Isat/Iref , were measured and fitted to a hyperbolic dose-response model to determine the dissociation constant for the protein/ADP interaction.

PLCγ1^D1165H = experiment: PLC activity assay 1 (A1), PLCγ1 D1165H variant; assay type: biochemical, human
Description: The effect of nucleotide inhibition on PLC activity was measured using either a membrane-based assay with the fluorescent substrate (XY-69) incorporated into liposomes or using a small soluble substrate, Aldol 518 myo-inositol-1-phosphate (Aldol). Both methods utilised the same PLC assay buffer [20 mM Hepes-KOH, 70 mM KCl, 3 mM EGTA, 2.97 mM CaCl2, 2 mM TCEP and fatty acid-free bovine serum albumin (FAF-BSA; 50 μg/ml) (pH 7.5)]. Both assays were performed in low volume black 384-well plates (Greiner Bio-One), were composed of a final assay volume of 20 μl and were monitored in a Clariostar plate reader (BMG Labtech). […] The excitation and emission wavelengths were 588–15 and 642–20, respectively.
A CLARIOstar plate reader (BMG Labtech) was used to measure the production of the fluorescent product. The excitation and emission wavelengths were 485–15 and 520–20, respectively. Each experiment was performed in at least triplicate; in many cases, nine-fold replicates were generated. The enzyme progress curves were plotted for each concentration of nucleotide using Graphpad Prism software. The initial linear rate of product generation was calculated and converted to a % inhibition when compared with the rate of PLC activity in the absence of nucleotide. […]

In the case of Nc1ncnc2c1ncn2[C@@H]1O[C@H](COP(=O)(O)OP(=O)(O)O)[C@@H](O)[C@H]1O [ADP], the Kd (PLCγ1^wt) is reported as ~196 µM and the “IC50 relative to PLCγ1^wt (fold higher)” value (PLCγ1^D1165H) is reported as 5–7 fold.

Reference: article PMC12687421, “Characterisation of an allosteric site in PLCγ enzymes and implications for development of their specific inhibitors” (Biochemical Journal, 2025)
